Data taken from patent publication US20080193376A1, “Methods of Enhanced Detection and Therapy of Inflamed Tissues Using Immune Modulation” (priority 2004, published 2008).

System: atherosclerotic plaques
Assay: Intravascular catheter beta probe detection of FDG in rabbit aorta
Format: in vivo, New Zealand white rabbits
Text: Male New Zealand white rabbits ranging from 2.5 to 3.0 kilograms in weight (Charles River Breeding Lab) were maintained on a 2% cholesterol-6% peanut oil diet (ICN) for 10 weeks. After 1 week on the peanut oil diet, the abdominal aorta was denuded of endothelium by a modified Baumgartner technique. Briefly, each animal was anesthetized with a mixture of ketamine and xylazine and the right femoral artery was isolated. Subsequently, a 4 F Fogarty embolectomy catheter was introduced via arteriotomy and advanced under fluoroscopic guidance to the level of the diaphragm. The balloon was then inflated to 3 psi (pounds per square inch) above balloon inflation pressure and three passes were made down the abdominal aorta with the inflated catheter. […]
Additionally, FDG was administered intravenously to two additional rabbits. […] Aortic segments at previously assessed sites of plaque and control areas were excised and examined for uptake of FDG by standard well counting.
Sensitivity of the probe was 850±11 cps/μCi (mean±SD). Catheter-determined activity correlated well with well counting measurements, (r=0.89, P<0.001, FIG. 3). Moreover, atherosclerotic regions were readily distinguished from control by catheter mounted beta probe, (11.9±2.1 [n=9, range 9.7±15.3] vs. 4.8±1.9[n=14, range 1.3±7.3], cps in atherosclerotic vs. control regions, respectively, P<0.001; FIG. 4).

OC[C@H]1OC(O)[C@H]([18F])[C@@H](O)[C@@H]1O (some centres unmarked) [FDG, ^18F-Fluorodeoxyglucose]
FDG activity by catheter mounted beta probe (atherosclerotic regions, n=9, FDG intravenously): 11.9±2.1 cps | FDG activity by catheter mounted beta probe (control regions, n=14, FDG intravenously): 4.8±1.9 cps
